Consider 2 molecules from US20240360409A1, “METHOD FOR PRODUCING HIGHLY PROLIFERATIVE CELL, AND HIGHLY PROLIFERATIVE CELL AND USE THEREOF” (TOKYO MEDICAL UNIVERSITY, priority 2021, published 2024).

SMILES strings stand for the structures.

This experiment deals with Normal Human Astrocytes (NHA). In words: Long-term culturing of human astrocytes using medium containing inhibitor (Example 1). The experiment is classed as cell-based. As to conditions: for Number of days up to day of final passage / Passage number: NHA, 41 days of culturing, Y 10 μM, A 0.5 μM. The method, then: Long-term culturing of human astrocytes was performed using the following materials, reagents, and products for culturing.
• Normal Human Astrocytes (NHA) (CC-2565, Lonza Group AG)
• Culture medium: AGM Astrocyte Growth Medium Bullet Kit (CC-3186, Lonza Group AG) (composition of AGM: basal medium, FBS (3% (v/v)), L-glutamine, ascorbic acid, hEGF, insulin, and antibiotic) • Inhibitor Y: CultureSure (registered trademark) Y-27632 (034-24024, FUJIFILM Wako Pure Chemical Corporation), final concentration: 10 μM • Inhibitor A: CultureSure (registered trademark) A-83-01(035-24113, FUJIFILM Wako Pure Chemical Corporation), final concentration: 0.5 μM • Cell detachment agent: Accutase (AT104, Innovative Cell Technologies, Inc.) • Cell buffer: phosphate buffered saline (Dulbecco's formula; without calcium and magnesium) (BNDSBN200, KAC Co., Ltd.) • Medium for cell freezing: CELLBANKER 1 (CB011 TaKaRa Bio Inc. (NIPPON ZENYAKU KOGYO CO., LTD.)) • Cell culturing dish 60 mm (150462, Thermo Fisher Scientific Inc.) • Cell culturing dish 100 mm (150466, Thermo Fisher Scientific Inc.) • Cell culturing dish 150 mm (150468, Thermo Fisher Scientific Inc.) • Stericup Quick Release-GP Sterile Vacuum Filtration System (S2GPU02RE, Merck Millipore) • Inhibitor-free medium for culture supernatant collection: Dulbecco's Modied Eagle Medium (DMEM) (C11995500CP, Gibco (registered trademark), Thermo Fisher Scientific Inc.) and N-2 Supplement (x100) (17502-048, Gibco (registered trademark), Thermo Fisher Scientific Inc.)
The long-term culturing was performed in accordance with the following procedure. A frozen tube of the human astrocyte cells (NHA) was thawed in a water bath at 37° C. Next, the lysed cells were transferred to the culture medium so that the total volume was 10 mL and subjected to centrifugation at 180×g for 3 minutes at room temperature, and then the medium was removed. The cells were divided into 4 groups; a group to which only the inhibitor Y was added (hereinafter, the NHA-Y group), a group to which only the inhibitor A was added (hereinafter, the NHA-A group), a group to which the inhibitor Y and the inhibitor A were added (hereinafter, the NHA-YA group), and a group to Ih no inhibitor was added (normal group).
The medium was replaced every other day or every two days with fresh culture medium containing each inhibitor (or not containing any inhibitor). When the confluency reached 80 to 90%, the cells were detached using the cell detachment agent, and the cells were suspended in the culture medium containing each inhibitor (or not containing any inhibitor) and passaged into a 6-well plate at a seeding density of 4.2×10^3 cells/cm^2. While continuing the passaging, the culturing was performed for 41 days in the culture medium containing each inhibitor (or not containing any inhibitor).
The cell passage number and the number of days up to the day of final passage in each group are indicated in the following Table 1, and the correlations between the number of culturing days and the total number of cells are indicated in Table 2.

Regarding `C[C@@H](N)[C@H]1CC[C@H](C(=O)Nc2ccncc2)CC1` [Y], the “Number of days up to day of final passage” value turned out to be 29 days and the Passage number is recorded as 5 times. Besides, the Number of cells (culturing day 0) is listed as 8.00 ×10^4 cells. Also, the Number of cells (culturing day 5) is 87.25 ×10^4 cells. Also, the Number of cells (culturing day 8) is given as 245.39 ×10^4 cells. In addition, under “culturing day 13”, the Number of cells is 391.09 ×10^4 cells. For the same molecule, the Number of cells (culturing day 19) is on record as 733.30 ×10^4 cells. Moreover, the Number of cells (culturing day 29) is recorded as 756.21 ×10^4 cells.
Regarding `Cc1cccc(-c2nn(C(=S)Nc3ccccc3)cc2-c2ccnc3ccccc23)n1` [A, 3-(6-methylpyridin-2-yl)-4-(4-quinolyl)-1-phenylthiocarbamoyl-1H-pyrazole], the “Number of days up to day of final passage” value amounted to 30 days and the Passage number is given as 4 times. Also, the Number of cells (culturing day 0) is on record as 8.00 ×10^4 cells. Moreover, for the setting “culturing day 5”, the Number of cells is reported as 55.75 ×10^4 cells. Further, the Number of cells (culturing day 15) is listed as 264.81 ×10^4 cells. For the same molecule, the Number of cells (culturing day 23) is 595.83 ×10^4 cells. The Number of cells (culturing day 30) is listed as 1005.46 ×10^4 cells.
